Columns and labels:
[1] = tested on: Tetrahymena cells; experiment: Single-cell transfer cultures of Tetrahymena with AZT or Ara-G; type: cell-based, Tetrahymena thermophila
Procedure: For analysis of vegetative growth and macronuclear DNA from single-cell cultures containing the nucleoside analogs AZT or Ara-G, SB210 (VI) cells were grown from stationary stock cultures overnight at 30° C. with shaking (100 rpm) in 50 ml 2% PPYS or Isobroth. Cells were counted and added to the appropriate medium plus analog (Ara-G to 1 mM or DMSO to 1% as control in 2% PPYS; AZT to 10 μm or 1 mM, or no addition as control in Isobroth) and plated in 96-well plates (Falcon), 100 μl per well at a density of 1 cell per well. 5 plates were prepared for each analog or control. Wells were scored for cell growth and plates were replica plated every 1-2 days (Ara-G and DMSO plates) or every 2-4 days (AZT and Isobroth control plates) to maintain approximate inoculation densities of 1-10 cells per well for each passage. Occasionally individual wells were passaged by hand (1 μl inoculated per well using a pipettor) into several blank wells, to expand the number of live wells per plate as single-cell cultures were lost over time due to low probability of being transferred at each passage. After passaging, cells were pooled, pelleted and stored at −80° C. until processed for DNA analysis.
To test whether we had missed such a subpopulation of cells, we carried out the same experiments on vegetatively dividing Tetrahymena cells in the presence and absence of drug, but in these experiments the subculturing was carried out by plating cells at an average of 1 to 10 cells per well in microtiter plate wells in the presence of 10 μM and 1 mM AZT, and 10 μM and 1 mM Ara-G. For each drug, cells were plated out in this manner for 30 consecutive days (90 to 150 cell generations) and 16 consecutive days (50 to 80 cell generations) respectively for the 10 μM and 1 mM drug concentrations. DNA was isolated at intervals from combined samplings of the wells for analysis of telomere length.

[2] = tested on: Tetrahymena cells; experiment: Progeny formation (cycloheximide resistance) of Tetrahymena conjugated in the presence of analog; type: cell-based, Tetrahymena thermophila; conditions: for # CHX-R: number of cycloheximide-resistant wells
Procedure: For analysis of cycloheximide (CHX) sensitivity of cells conjugated in the presence of analog, 50 ml cultures of each cell type were grown overnight in 2% PPYS, starved in Dryl's for 18 hours, mated (5×10^5 cells/ml) for 6 hours, then analog was added. Cells were allowed to complete mating in the presence of the analog. Twenty-four hours after mixing, cells were diluted in Dryl's solution, counted and plated at 1 cell per well of 96-well plates in 1% PPYS without analog. Cells were grown for 4 days in a humid chamber at 30° C., without shaking. Cells were then replica plated into 1% PPYS plus 15 μg/ml cycloheximide, allowed to grow for four days before scoring, and percent of CHX-resistant wells was calculated. Because generation of progeny expressing the cycloheximide marker requires successful production of a new macronucleus, cells whose macronuclear development was disrupted by the analog are killed in CHX.
This process involves de novo formation of new macronuclear telomeres in the progeny cells. Macronuclear development in ciliated protozoans such as Tetrahymena involves developmentally programmed, site-specific fragmentation of germline chromosomes into linear subchromosomes, whose ends are healed by de novo addition of telomeres. […] Because of the immediate requirement for telomere addition to fragmented DNA, it is possible that the latter process might be more sensitive to telomerase inhibition than telomere maintenance during vegetative growth. To test whether nucleoside analogs cause inhibition of macronuclear development due to a disruption of telomere formation, we mated two strains of Tetrahymena which are sensitive to cycloheximide, but whose progeny after mating are resistant to cycloheximide. Synchronized mated cells were treated with AZT at concentrations ranging from 10 μM to 5 mM for a period beginning just prior to when macronuclear development begins and continuing during macronuclear development (the period 6-24 hours after mating was initiated). […] In attempts to maximize the effect of AZT, cells were either refed at 6 hrs with 2% PPYS or Isobroth, or starved until 24 hrs (the duration of the AZT treatment). Such starvation arrests macronuclear development at an intermediate stage. When refed, macronuclear development would then be forced to proceed in the presence of the AZT. Control, unmated parental cells were also plated and exposed to drug.

[3] = 1 mM in Isobroth, single cell transfers

Cc1cn([C@H]2C[C@H](N=[N+]=[N-])[C@@H](CO)O2)c(=O)[nH]c1=O [AZT]
plating efficiency compared with control medium ([1]; 10 μM AZT, 10 μM or 1 mM Ara-G, 1 to 10 cells per well): no changes in the plating efficiency
mean length and size distribution of telomeric DNA of pooled fast cells ([1]; 1 mM in Isobroth): indistinguishable from those of control cells grown without AZT
telomeric DNA of pooled slow cells ([1]; 1 mM in Isobroth): slight decrease in mean telomere length and heterogeneity
growth rate of the fast growth class [1, 3]: 2 to 4 cell doubling per day
growth rate of the slow growth class [1, 3]: 0 to 1 cell doubling per day
% CHX-R ([2]; 0.01 mM analog (head prints MM), first block for the analog): 72%
% CHX-R ([2]; 0.01 mM analog (head prints MM), second block for the analog): 73%
# CHX-R ([2]; 0.01 mM analog, first block for the analog): 121
# CHX-R ([2]; 0.01 mM analog, second block for the analog): 67
% CHX-R ([2]; 0.1 mM analog (head prints MM), first block for the analog): 68%
% CHX-R ([2]; 0.1 mM analog (head prints MM), second block for the analog): 67%
# CHX-R ([2]; 0.1 mM analog, first block for the analog): 100
# CHX-R ([2]; 0.1 mM analog, second block for the analog): 128
% CHX-R ([2]; 1.0 mM analog (head prints MM), first block for the analog): 55%
% CHX-R ([2]; 1.0 mM analog (head prints MM), second block for the analog): 48%
# CHX-R ([2]; 1.0 mM analog, first block for the analog): 91
# CHX-R ([2]; 1.0 mM analog, second block for the analog): 60
% CHX-R ([2]; 5.0 mM analog (head prints MM), first block for the analog): 63%
% CHX-R ([2]; 5.0 mM analog (head prints MM), second block for the analog): 53%
# CHX-R ([2]; 5.0 mM analog, first block for the analog): 75
# CHX-R ([2]; 5.0 mM analog, second block for the analog): 89
irreversible disruption of macronuclear development ([2]; analog present during conjugation): little or no irreversible disruption

Source: US6551774B1, “Diagnostic methods for conditions associated with elevated cellular levels of telomerase activity” (Board of Regents, The University of Texas System, priority 1992, dated 2003)
